These results are taken from PubChem BioAssay AID179 (DTP/NCI, 2004).

Several values for one entry are separate records, joined by “and”; a condition that tells them apart may be missing. Identical values can stand only once. Activity calls are given as the source filed them.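 The calls were made as follows: active = compounds giving half or more protection of infected cells from virus-caused growth loss, again on retest; inactive = the rest.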 Where a SMILES comes first, the peptide text is derived from it.

The subject of the experiment is CEM cells HIV-1 protection, formazan growth assay. In words: NCI AIDS Antiviral Assay. Particulars: for IC50: measured here: growth of uninfected CEM cells. The essentials: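 Category rules: moderately active means at least 50% protection on retest, and confirmed active means 100% protection reproducibly. The underlying data came from a formazan growth assay in HIV-1-infected CEM cells.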

One may read the EC50 as the concentration at which the effect is half-maximal. By IC50 is commonly meant the midpoint of a concentration-inhibition curve. Take `NC1=CN(Cc2ccccc2)C2=N/C(=C\c3ccccc3)C(=O)N12`: the EC50 is more than 200 µM and the IC50 was found to be 77.6 µM.
Regarding `O=[As](O)(O)c1cc(N=Nc2ccc(-c3ccc(N=Nc4cc([As](=O)(O)O)c(O)cc4O)cc3)cc2)c(O)cc1O`, the EC50 was 6.61 µM and the concentration for half-maximal inhibition (IC50) is 7.76 µM.
For the compound `O=C(O)CCC(O)=C1S(=O)(=O)OCCOS1(=O)=O`, the EC50 is more than 4470 µM and the IC50 amounted to 331 µM.
On the same counts, the results for `c1ccc(N2C3Sc4ncccc4C2Sc2ncccc23)cc1` are more than 66.1 µM and more than 66.1 µM.
In the same order, the values of `NCCCCNCCCN1CCOC1=O` are more than 200 µM and more than 200 µM.
For the compound `O=C(CC(=O)C1CCOC1=O)C(=O)Nc1ccc(Cl)cc1` (centres undefined), the result was inactive.
Still for that read-out and setting: the value for `COc1cc(N=Nc2ccccc2C(=O)[O-])cc(/C=N/NC(N)=S)c1[O-].[O]=[Mo]=[O].[O]=[Mo]=[O]` was “inactive”.
As to `CCOC(=O)C(C(=O)OCC)=S1c2ccccc2Sc2ccccc21`, the EC50 was more than 200 µM and the IC50 was more than 200 µM.
With `O=C(O)C1CCC(c2ccc(Cl)cc2Cl)N1` (centres undefined), the EC50 is more than 200 µM and the 50% inhibitory concentration (IC50) is more than 200 µM.
For `CO[C@@H]1C2=CC=CC=C[C@H]2n2c(=O)n(-c3ccccc3)c(=O)n21`, the EC50 is more than 162 µM and the IC50 came out at 81.3 µM.
In the same order, the values of `C1CCN(CCCSSCCCN2CCCCC2)CC1` are more than 200 µM and 91.2 µM.
For `CCOC(=O)/C=C1\SC12C(C)(C)CCCC2(C)C`, the EC50 is more than 200 µM and the IC50 amounted to 61.7 µM.
Regarding `CN1CCCC(C#N)(c2ccccc2)CC1` (centres undefined), the outcome was inactive.
Turning to `COC[C@@H](N=Cc1ccc(OC)cc1)C(C)C`, the EC50 is more than 200 µM and the IC50 is more than 200 µM.
In the case of `C=C1C(=O)C=C2C=C3C(=O)C(C)(C)C[C@]3(O)C12C` (some centres undefined), the EC50 is more than 1020 µM and the IC50 turned out to be 0.389 µM.
On the same counts, the results for `COc1cccc(NC(=O)/C(Cc2nc3ccccc3nc2C)=N/NC(=O)C[n+]2ccccc2)c1` are more than 95.5 µM and more than 95.5 µM.
In the same order, the values of `C=CCOCn1cc(F)c(=O)[nH]c1=O` are more than 200 µM and more than 200 µM.
In the case of `CCNC(=O)NNc1ncnc2c1c(-c1ccc(Cl)cc1)cn2-c1ccc(C)cc1`, the EC50 is more than 200 µM and the IC50 was determined as 35.5 µM.
`CC1(C)CC(=O)C(/C=N/c2nc(-c3cccc([N+](=O)[O-])c3)cs2)=C(O)C1`: the EC50 was more than 200 µM and the IC50 was 8.32 µM.
On the same counts, the results for `CC1=C(C(=O)Nc2ccccc2)C(c2cc(Cl)cc(Cl)c2)C(C(=O)Nc2ccccc2)=C(C)N1` are more than 14.5 µM and more than 14.5 µM.
In the same order, the values of `CCCC[C@@H]1CCN2C[C@@H](O)[C@@H](O)[C@H]2[C@@H]1O` are more than 200 µM and more than 200 µM.
On the same counts, the results for `Cc1cn([C@@H]2C[C@](C)(CO)N(C)O2)c(=O)[nH]c1=O` are more than 200 µM and more than 200 µM.
Regarding `O/N=C1/COC(C(F)(F)F)(C(F)(F)F)C1`, the EC50 was more than 200 µM and the IC50 was more than 200 µM.
`Cc1cc2c3ccccc3n(C)c2c2c1C(=O)C=CC2=O`: the EC50 was more than 69.2 µM and the half-inhibitory concentration (IC50) stood at 5.89 µM.
On the same counts, the results for `CC(C)=CC[C@]12CCN[C@H]1N(S(=O)(=O)c1ccccc1)c1ccccc12` are more than 200 µM and 30.9 µM.
As to `FC1OC2OC1C(OCc1ccccc1)C(OCc1ccccc1)C2OCc1ccccc1` (centres undefined), the EC50 is more than 6.03 µM and the 50% inhibitory concentration (IC50) was more than 6.03 µM.
Regarding `Fc1sc2c(c1F)C1CCC2C1` (centres undefined), the EC50 was more than 200 µM and the IC50 stood at 115 µM.
In the same order, the values of `Oc1ccc(-c2nc(-c3ccc(F)cc3)c(-c3ccc4ccccc4n3)[nH]2)cc1` are more than 200 µM and 21.4 µM.
In the same order, the values of `C#CC1(O)CCC2[C@@H]3CCc4cc(Oc5nc(F)nc(-c6c7ccccc7cn6C)n5)ccc4C3CC[C@@]21C` (some centres undefined) are more than 10 µM and more than 10 µM.
`CCN(CC)C(=S)SS(=O)(=O)c1ccccc1[N+](=O)[O-]`: the EC50 is more than 200 µM and the IC50 was 7.24 µM.
In the same order, the values of `COc1ccc(/C=C/C(=O)c2c(-c3ccccc3)nn(C)c(=O)c2N2CCCCC2)cc1` are 15.8 µM and 19.1 µM.
On the same counts, the results for `O=[N+]([O-])c1ccc2c(c1)c1nn2CCCCOc2nn(c3ccc([N+](=O)[O-])cc23)CCCCO1` are more than 200 µM and more than 200 µM.
As to `O=C1C[C@@H]([C@H](NC(=O)OCc2ccccc2)C(=O)O)ON1`, the result was inactive.
For `O=C(C(/C=N\C(=S)Nc1ccccc1Cl)=C(/O)c1ccccc1)c1ccccc1`, the EC50 is more than 200 µM and the IC50 came to 12 µM.
With `Nc1c(Cl)cc(/C=C2\C=Cc3ccccc32)cc1Cl`, the EC50 was more than 18.2 µM and the IC50 was more than 18.2 µM.
On to `CC(=O)OC1C(O[C@H]2CC[C@]34O[C@]35CC[C@]3(C)C(C6(C)CC[C@@H](C(C)(C)O)O6)[C@@H](O)CC3(C)[C@@H]5CC(OC3OC(CO)C(O)C(O)C3O)C4C2(C)C)OCC(O)C1O` (some centres undefined), for which the EC50 is 67.6 µM and the IC50 was 302 µM.
In the same order, the values of `NC(=O)CNC(=O)C1CC(O)CN1C(=O)OCc1ccccc1` (centres undefined) (HELM PEPTIDE1{[O=C(OCc1ccccc1)[*:2]].[O=C(C1CC(O)CN1[*:1])[*:2]].G.[am]}$$$$V2.0) are more than 200 µM and more than 200 µM.
In the case of `CC(=O)OCC1OC(NC(=S)N/N=C2\CC(c3ccccc3)Oc3ccccc32)C(OC(C)=O)C(OC(C)=O)C1OC(C)=O` (centres undefined), the outcome was inactive.
`O=C(CCc1cccc(O)c1)NCCc1cccc(O)c1`: the EC50 was more than 200 µM and the IC50 was more than 200 µM.
On to `Cc1c(Cl)cccc1Nc1ncccc1C(=O)O`, for which the EC50 was more than 200 µM and the IC50 was more than 100 µM.
In the same order, the values of `CSc1ccccc1NC1=NCCO1` are more than 200 µM and more than 200 µM.
For `O=C1NC(O)c2cc(Cl)ccc2O1` (centres undefined), the outcome was inactive.
Take `COC1=CC(=O)[C@]2(C)[C@H](C1=O)C(C)[C@H]2c1ccccc1` (some centres undefined): the EC50 is more than 95.5 µM and the IC50 is more than 95.5 µM.
Take `OCc1ccc2c(c1)CC1(C2)Cc2cc3c(cc2C1)CCC3`: the EC50 was more than 200 µM and the IC50 was found to be 0.977 µM.
Turning to `Nc1ncn2c(n1)nc1ccccc12`, the EC50 was more than 200 µM and the IC50 was more than 200 µM.
For the compound `COc1ccc(NC(=S)NNC(=O)c2nsc3ccccc23)cc1`, the EC50 was more than 138 µM and the IC50 amounted to 19.1 µM.
In the same order, the values of `CC(=O)NNc1nc(C)c(C(=O)NNC(=O)C(=O)Nc2ccc(C)c(C)c2)s1` are more than 170 µM and 31.6 µM.
On the same counts, the results for `CCC(c1ccc(OC(C)=O)c(CC(Br)CBr)c1)C(CC)c1ccc(OC(C)=O)c(CC(Br)CBr)c1` (centres undefined) are more than 100 µM and 16.2 µM.
In the same order, the values of `COC(=O)C1=C(C(=O)OC)C2(C3C(SC)=CC(C)(C)CC3S1)N(Cc1ccccc1)CCN2Cc1ccccc1` (centres undefined) are more than 9.12 µM and more than 9.12 µM.
For `O=C(CCCN1CCC(C(O)c2ccc(F)cc2)CC1)c1ccc(F)cc1` (centres undefined), the EC50 is more than 95.5 µM and the IC50 is 79.4 µM.
Consider `Cc1[nH]c(N)nc(=S)c1CCC(=O)O`, for which the EC50 was more than 200 µM and the IC50 is more than 200 µM.
`CN(C)CCNC(=O)c1cccc(CO)c1[N+](=O)[O-]`: the EC50 was more than 200 µM and the concentration for half-maximal inhibition (IC50) was more than 200 µM.
Consider `COC(=O)C(CCC(=O)O)N1C(=O)c2ccccc2C1=O` (centres undefined), for which the EC50 was more than 200 µM and the IC50 was more than 200 µM.
Take `COC(=O)C(=O)C(C(=O)C(=O)Nc1ccc([N+](=O)[O-])cc1[N+](=O)[O-])c1nc2ccc(Cl)cc2[nH]c1=O` (centres undefined): the EC50 was more than 132 µM and the half-maximal inhibitory concentration (IC50) is more than 132 µM.
`CS(=O)(=O)c1nc(Cl)c(Cl)c(C#N)c1Cl`: the EC50 was more than 200 µM and the IC50 was determined as 0.457 µM.
On the same counts, the results for `O=C1COc2cc3c(cc2N1)SCC(=O)N3` are more than 42.7 µM and more than 42.7 µM.
In the same order, the values of `O=C(COc1ccc2c(=O)cc(-c3ccccc3)oc2c1)N1CCN(c2ccccc2)CC1` are more than 16.2 µM and more than 16.2 µM.
With `C[N+](C)(C)CC1CCCC(C[N+](C)(C)C)C1=NO` (centres undefined), the outcome was inactive.
On to `O=C1/C(=C/c2ccc(O)c([N+](=O)[O-])c2)CCC/C1=C\c1ccc(O)c([N+](=O)[O-])c1`, for which the EC50 was more than 200 µM and the IC50 amounted to 11.7 µM.
On the same counts, the results for `N#CC(NNC(=O)Cc1ccccc1)c1ccc(O)cc1` (centres undefined) are more than 891 µM and 245 µM.
On the same counts, the results for `N#Cc1c(N)nc2c(c(-c3ccc(Cl)cc3)nn2-c2ccccc2)c1C#N` are more than 200 µM and more than 200 µM.
Turning to `C[C@H]1[C@H](N2CCCC2)O[Si](C(C)(C)C)(C(C)(C)C)[C@@H]1C`, the EC50 is more than 200 µM and the IC50 is more than 200 µM.
Regarding `Cc1nc2c(nc1C)C(=O)C(Br)=CC2=O`, the outcome was inactive.
In the case of `O=[N+]([O-])C(/C(Cl)=C(\Cl)Br)=C(/Cl)SCc1ccccc1`, the EC50 is more than 200 µM and the IC50 was 1.78 µM.
As for `COc1cc(/C=C/C(=O)CC(=O)/C=C/c2ccc(OC(=O)CCCCC3CCSS3)c(OC)c2)ccc1OC(=O)CCCCC1CCSS1` (centres undefined), the EC50 is more than 200 µM and the IC50 is more than 200 µM.
For `O=c1oc2ccccc2c(O)c1C1=N/C(=N/N=C/c2ccc(Cl)cc2)SC1`, the EC50 was more than 200 µM and the IC50 is more than 200 µM.
Take `Cc1c([N+](=O)[O-])c(=O)oc2c(C)c3occc(=O)c3cc12`: the EC50 is more than 6.92 µM and the IC50 was more than 6.92 µM.
On to `NNC(=O)CC(=O)Nc1ccccc1Cl`, for which the EC50 is more than 200 µM and the IC50 is more than 200 µM.
As for `O=c1cc2oc3cc(O)c(O)cc3c(-c3ccccc3)c-2cc1O`, the EC50 was more than 200 µM; the IC50 was 39.8 µM and 83.2 µM.
As for `CS(=O)(=O)OCC1OS(=O)OC1COS(C)(=O)=O` (centres undefined), the EC50 is more than 200 µM and the IC50 worked out at 4.9 µM.
On the same counts, the results for `O=C(Nc1ccc(C2=NCC(O)CN2)cc1)c1ccc(C(=O)Nc2ccc(C3=NCC(O)CN3)cc2)cc1` (centres undefined) are 12.9 µM and more than 200 µM.
